Laboratory results reported in patent publication US20240415808A1, “Dosage Regimen for Fexuprazan Injection Composition” (Daewoong Pharmaceutical Co., Ltd., priority 2021, published 2024).
Several values for one entry are separate records, joined by “and”; a condition that tells them apart may be missing. Equal entries are not always repeated.

Legend:
Format in all cases: in vivo, human
[1] = test system: acidity (pH) in the gastrointestinal tract; assay: oral vs intravenous two-way crossover clinical trial, acidity (pH) in the gastrointestinal tract; conditions: healthy adults
Excerpt: (§1) Therefore, in order to compare the safety/PK/PD of the compound of the present invention during single intravenous administration and during single oral administration and derive the bioavailability, the clinical trial was designed as a randomized, open-label, single-dose, two-period, two-way crossover trial in healthy adults. The selection/exclusion criteria were the same as in Experimental Example 4. A total of 8 subjects were enrolled, and four subjects each were randomly assigned to sequence group 1 or sequence group 2 in the order in which they passed the screening criteria. All test subjects completed safety, pharmacokinetic, and pharmacodynamic evaluations according to the planned clinical trial schedule.
A screening visit was performed 3 to 28 days before the start of the clinical trial, and hospital admission was performed 2 days before medication. The first phase medication was performed according to the order group randomly assigned on the morning of the day. A stabilizer (200 mg), a freeze-drying auxiliary agent (200 mg), and the previously prepared fexuprazan hydrochloride (40 mg based fexuprazan weight) were dissolved in water for injection (4 mL), an appropriate amount of acid was added thereto. A composition whose pH was adjusted to 4.0 was administered intravenously, or an excipient (100 mg), a disintegrant (5 mg), and the previously prepared fexuprazan hydrochloride (40 mg based on fexuprazan weight) were mixed and compressed to prepare a tablet, which were administered orally. The hospital discharge was performed on the third day of medication. The second phase medication was performed on the morning of the 8th after hospital admission on the 6th day after the first phase medication. Hospital discharge was performed on the 10th day of medication. Subsequently, a close-out visit was performed between 15 and 18 days after medication (FIG. 6).
(§2) Testing of the acidity (pH) in the gastrointestinal tract and gastric secretion promoting hormone gastrin were performed from 24 hours before medication to 24 hours after medication. Blood collection for pharmacokinetics and urine collection for pharmacokinetics were performed for 48 hours from the time of medication.

[2] = test system: acidity in the gastrointestinal tract; assay: injection maintenance therapy test, acidity in the gastrointestinal tract; conditions: healthy adults; for Fraction time pH ≥ 6 over 24 hours post-dose (duration %): 40 mg IV over 30 minutes then 4 mg/hr for 71.5 hours; for Fraction time pH ≥ 4 over 24 hours post-dose (duration %) / Mean pH / Median pH: 40 mg IV then 4 mg/hr for 71.5 hours
Description: In order to confirm changes in PD values according to fexuprazan injection maintenance therapy, the test was conducted on eight healthy adults between the ages of 19 and 50. To the test subjects, a total of 100 ml of a solution obtained by mixing 40 mg of a freeze-dried preparation (40 mg/vial) prepared in the same manner as that used in Experimental Example 6, and physiological saline was administered intravenously for 30 minutes. Subsequently, on the first day, a total of 1 L of a solution obtained by mixing 94 mg of freeze-dried formulation (40 mg/vial) and physiological saline was administered intravenously as a maintenance dose for 23.5 hours. On the second and third days, a total of 1 L of a solution obtained by mixing 96 mg of freeze-dried formulation (40 mg/vial) and physiological saline was administered intravenously for 24 hours. That is, as a maintenance dose, a total of 3 L of a solution of 286 mg of lyophilized formulation (40 mg/vial) mixed with physiological saline was administered intravenously for 71.5 hours at a rate of 4 mg/hr. The acidity in the gastrointestinal tract was tested on the first and third days, respectively, and the results are shown in Table 14 and FIG. 15 below.

[3] = oral vs intravenous two-way crossover clinical trial, safety; conditions: healthy adults, single 40 mg oral and 40 mg intravenous
Excerpt: as §1, §2

[4] = test system: acidity (pH) in the gastrointestinal tract; assay: single intravenous dose-escalation clinical trial, acidity (pH) in the gastrointestinal tract; conditions: healthy adults; for Fraction time pH ≥ 4 (%) / Fraction time pH ≥ 6 (%): 24 hours after medication
Description: In order to confirm the safety/PK/PD of the compound of the present invention during intravenous administration, the clinical trial was designed with random assignment, double-blind, placebo-controlled, single dose, and stepwise dose-escalation in healthy adults (Korean/Chinese) between the ages of 19 and 50.
A stabilizer (200 mg), a freeze-drying auxiliary agent (200 mg), and the previously prepared fexuprazan hydrochloride (40 mg based on fexuprazan weight) were dissolved in water for injection (4 mL), and an appropriate amount of acid was added thereto to adjust the pH to 4.0. The prepared solution was put into a vial, dried by a freeze-drying method, and prepared as a freeze-drying agent.
The freeze-dried composition prepared as above was used, but a total of 28 subjects of 4, 8, 8, and 8 subjects each were enrolled for four dose groups (10 mg, 20 mg, 40 mg, and 80 mg) based on fexuprazan weight, and each group was randomly assigned to test or control groups in the order that they passed the screening criteria at a ratio of 3:1. All test subjects completed safety, pharmacokinetic, and pharmacodynamic evaluations according to the planned clinical trial schedule.
The medication was performed in the morning, and the patient was discharged from the hospital on the third day of medication. Subsequently, a close-out visit was performed between the 8th and 11th day of medication.
as §2

[5] = intravenous administration (40 mg)

CNCc1cn(S(=O)(=O)c2cccc(F)c2)c(-c2ccc(F)cc2F)c1OC [Fexuprazan, 1-(5-(2,4-difluorophenyl)-1-((3-fluorophenyl)sulfonyl)-4-methoxy-1H-pyrrol-3-yl)-N-methylmethanamine]
Fraction time pH ≥ 4 (%) [1, 5]: 71.6% and 71.6 ± 13.5%
Fraction time pH ≥ 6 (%) [1, 5]: 38.7 ± 10.9%
Mean pH [1, 5]: 4.9 and 4.9 ± 0.5
Median pH [1, 5]: 5.5 ± 0.7
Fraction time pH ≥ 4 (%) ([1]; oral administration (40 mg)): 47.5% and 47.5 ± 14.2%
Fraction time pH ≥ 6 (%) ([1]; oral administration (40 mg)): 20.3 ± 12.8%
Mean pH ([1]; oral administration (40 mg)): 3.9 and 3.9 ± 0.7
Median pH ([1]; oral administration (40 mg)): 3.9 ± 1.2
Fraction time pH ≥ 6 over 24 hours post-dose (duration %) ([2]; Day 1): 65.40 ± 18.67%
Fraction time pH ≥ 6 over 24 hours post-dose (duration %) ([2]; Day 3): 76.33 (±15.98) % and 76.33 ± 15.98%
Fraction time pH ≥ 4 over 24 hours post-dose (duration %) ([2]; Day 1): 97.87 ± 1.43%
Mean pH ([2]; Day 1): 6.17 ± 0.36
Median pH ([2]; Day 1): 6.28 ± 0.32
Fraction time pH ≥ 4 over 24 hours post-dose (duration %) ([2]; Day 3): 99.85 ± 0.40%
Mean pH ([2]; Day 3): 6.39 ± 0.35
Median pH ([2]; Day 3): 6.44 ± 0.28
serious abnormalities or side effects [3]: no serious abnormalities or side effects were observed
time during which the pH maintained above 6 for 12 hours ([4]; intravenous administration of 40 mg, 12 hours): ≥ 50%
Mean pH ([4]; single intravenous 10 mg): 2.7 ± 0.1
Median pH ([4]; single intravenous 10 mg): 2.1 ± 0.2
Fraction time pH ≥ 4 (%) ([4]; single intravenous 10 mg): 20.4 ± 2.6%
Fraction time pH ≥ 6 (%) ([4]; single intravenous 10 mg): 2.9 ± 2.0%
Mean pH ([4]; single intravenous 20 mg): 3.9 ± 0.8
Median pH ([4]; single intravenous 20 mg): 3.8 ± 1.3
Fraction time pH ≥ 4 (%) ([4]; single intravenous 20 mg): 46.7% and 46.7 ± 19.0%
Fraction time pH ≥ 6 (%) ([4]; single intravenous 20 mg): 16.7 ± 14.6%
Mean pH ([4]; single intravenous 40 mg): 4.9 ± 0.3
Median pH ([4]; single intravenous 40 mg): 5.4 ± 0.6
Fraction time pH ≥ 4 (%) ([4]; single intravenous 40 mg): 71.0 ± 10.3%
Fraction time pH ≥ 6 (%) ([4]; single intravenous 40 mg): 38.3 ± 9.0%
Mean pH ([4]; single intravenous 80 mg): 5.9 ± 0.4
Median pH ([4]; single intravenous 80 mg): 6.2 ± 0.3
Fraction time pH ≥ 4 (%) ([4]; single intravenous 80 mg): 92.9 ± 4.8%
Fraction time pH ≥ 6 (%) ([4]; single intravenous 80 mg): 59.65% and 59.7 ± 15.7%
